Data as given in US10550111B2, “Pyrimidine urea compound containing isoxazolines and use thereof” (SHENYANG SINOCHEM AGROCHEMICALS R&D CO., LTD, priority 2014, dated 2020).

Columns and labels:
Type in all cases: in vivo
[1] = tested on: Setaria glauca (L.) Beauv.; test: Bioassay of herbicidal activity in greenhouse (further screening)
Protocol: (§1) Determination of herbicidal activity of compounds of the present invention against weeds was carried out by the following procedures:
(§2) Seeds of monocotyledonous and dicotyledonous weeds were sown in nutrition soil in paper pot (7 cm diameter), covered with soil in 1 cm and grown in the greenhouse under good growth conditions (temperature, atmospheric humidity, water supply). The compounds of the present invention as emulsifiable concentrate, were applied in pre-emergence and post-emergence treatment by track sprayer (Engineer Research Ltd., pressure 1.95 kg/cm^2, volume 500 L/hm^2, track speed 1.48 km/h). Pre-emergence treatment was conducted after seeding 24 hours and post-emergence treatment was done when the respective weeds reached predetermined leaf stage (grass weed 2- to 3-leaf stage, broad-leaf weed 2- to 4-leaf stage), the state of growth of the respective weeds were visually observed to determine the growth inhibition rate (%) in accordance with the following evaluation standard.
(§3) Growth inhibition rate (%): 0=no discernible action: 100=all weeds dead or not emerged.

Zinnia elegans Jacq. = test: as above
Protocol: as §1, §2, §3

[2] = tested on: Abutilon theophrasti Medic.; test: as above
Protocol: as §1, §2, §3

[3] = tested on: Echinochloa crus-galli (L.) Beauv.; test: as above
Protocol: as §1, §2, §3

[4] = tested on: broad-leaf weeds and grass weeds; test: General screening of herbicidal activity in greenhouse; details: 1000 g a.i./hm^2;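 further: 0 means no visible effect and 100 means all weeds dead or not emerged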
Protocol: as §1, §2, §3

## Cn1c(C(F)(F)F)cc(=O)n(-c2cc(C3=NOC(C)(COC(=O)CCl)C3)c(Cl)cc2F)c1=O (stereo not drawn) [Compound 50]
[1]; dose 37.5 g a.i./hm^2
  Growth inhibition rate, Post-emergence treatment, Setaria glauca (L.) Beauv.: 15%
  Growth inhibition rate, Pre-emergence treatment, Setaria glauca (L.) Beauv.: 0%
[1]; dose 150 g a.i./hm^2
  Growth inhibition rate, Post-emergence treatment, Setaria glauca (L.) Beauv.: 65%
  Growth inhibition rate, Pre-emergence treatment, Setaria glauca (L.) Beauv.: 30%
[1]; dose 600 g a.i./hm^2
  Growth inhibition rate, Post-emergence treatment, Setaria glauca (L.) Beauv.: 98%
  Growth inhibition rate, Pre-emergence treatment, Setaria glauca (L.) Beauv.: 90%
Zinnia elegans Jacq.; dose 37.5 g a.i./hm^2
  Growth inhibition rate, Post-emergence treatment, Zinnia elegans Jacq.: 98%
  Growth inhibition rate, Pre-emergence treatment, Zinnia elegans Jacq.: 0%
Zinnia elegans Jacq.; dose 150 g a.i./hm^2
  Growth inhibition rate, Post-emergence treatment, Zinnia elegans Jacq.: 100%
  Growth inhibition rate, Pre-emergence treatment, Zinnia elegans Jacq.: 30%
Zinnia elegans Jacq.; dose 600 g a.i./hm^2
  Growth inhibition rate, Post-emergence treatment, Zinnia elegans Jacq.: 100%
  Growth inhibition rate, Pre-emergence treatment, Zinnia elegans Jacq.: 90%
[2]; dose 37.5 g a.i./hm^2
  Growth inhibition rate, Post-emergence treatment, Abutilon theophrasti Medic.: 100%
  Growth inhibition rate, Pre-emergence treatment, Abutilon theophrasti Medic.: 0%
[2]; dose 150 g a.i./hm^2
  Growth inhibition rate, Post-emergence treatment, Abutilon theophrasti Medic.: 100%
  Growth inhibition rate, Pre-emergence treatment, Abutilon theophrasti Medic.: 35%
[2]; dose 600 g a.i./hm^2
  Growth inhibition rate, Post-emergence treatment, Abutilon theophrasti Medic.: 100%
  Growth inhibition rate, Pre-emergence treatment, Abutilon theophrasti Medic.: 100%
[3]; dose 37.5 g a.i./hm^2
  Growth inhibition rate, Post-emergence treatment, Echinochloa crus-galli (L.) Beauv.: 10%
  Growth inhibition rate, Pre-emergence treatment, Echinochloa crus-galli (L.) Beauv.: 0%
[3]; dose 150 g a.i./hm^2
  Growth inhibition rate, Post-emergence treatment, Echinochloa crus-galli (L.) Beauv.: 30%
  Growth inhibition rate, Pre-emergence treatment, Echinochloa crus-galli (L.) Beauv.: 10%
[3]; dose 600 g a.i./hm^2
  Growth inhibition rate, Post-emergence treatment, Echinochloa crus-galli (L.) Beauv.: 80%
  Growth inhibition rate, Pre-emergence treatment, Echinochloa crus-galli (L.) Beauv.: 80%
[4]
  pre-emergence and post-emergence herbicidal activity against broad-leaf weeds and grass weeds: good

## Cn1c(C(F)(F)F)cc(=O)n(-c2cc(C3=NOC(C)(CO)C3)c(Cl)cc2F)c1=O (stereo not drawn) [Compound 42]
[4]
  pre-emergence and post-emergence herbicidal activity against broad-leaf weeds and grass weeds: good

## Cn1c(C(F)(F)F)cc(=O)n(-c2cc(C3=NOC(C)(COC(=O)c4cc(Oc5ccc(C(F)(F)F)cc5Cl)ccc4[N+](=O)[O-])C3)c(Cl)cc2F)c1=O (stereo not drawn) [Compound 67]
[4]
  pre-emergence and post-emergence herbicidal activity against broad-leaf weeds and grass weeds: good

## Cn1c(C(F)(F)F)cc(=O)n(-c2ccc(Cl)c(C3=NOC(C)(COS(C)(=O)=O)C3)c2)c1=O (stereo not drawn) [Compound 366]
[4]
  pre-emergence and post-emergence herbicidal activity against broad-leaf weeds and grass weeds: good

## Cn1c(C(F)(F)F)cc(=O)n(-c2cc(C3=NOC(C)(CBr)C3)c(Cl)cc2F)c1=O (stereo not drawn) [Compound 99]
[4]
  pre-emergence and post-emergence herbicidal activity against broad-leaf weeds and grass weeds: good

## Cn1c(C(F)(F)F)cc(=O)n(-c2ccc(Cl)c(C3=NOC(C)(COC(=O)c4cc(Oc5ccc(C(F)(F)F)cc5Cl)ccc4[N+](=O)[O-])C3)c2)c1=O (stereo not drawn) [Compound 345]
[4]
  pre-emergence and post-emergence herbicidal activity against broad-leaf weeds and grass weeds: good

## Cn1c(C(F)(F)F)cc(=O)n(-c2ccc(Cl)c(C3=NOC(C)(COC(=O)CCc4ccccc4)C3)c2)c1=O (stereo not drawn) [Compound 333]
[4]
  pre-emergence and post-emergence herbicidal activity against broad-leaf weeds and grass weeds: good

## COC(=O)C1CCN(C(=O)C2(C)CC(c3cc(-n4c(=O)cc(C(F)(F)F)n(C)c4=O)c(F)cc3Cl)=NO2)CC1 (stereo not drawn) [Compound 35]
[4]
  pre-emergence and post-emergence herbicidal activity against broad-leaf weeds and grass weeds: good

## Cn1c(C(F)(F)F)cc(=O)n(-c2cc(C3=NOC(C)(COC(=O)CCc4ccccc4)C3)c(Cl)cc2F)c1=O (stereo not drawn) [Compound 55]
[1]; dose 37.5 g a.i./hm^2
  Growth inhibition rate, Post-emergence treatment, Setaria glauca (L.) Beauv.: 30%
  Growth inhibition rate, Pre-emergence treatment, Setaria glauca (L.) Beauv.: 0%
[1]; dose 150 g a.i./hm^2
  Growth inhibition rate, Post-emergence treatment, Setaria glauca (L.) Beauv.: 75%
  Growth inhibition rate, Pre-emergence treatment, Setaria glauca (L.) Beauv.: 5%
[1]; dose 600 g a.i./hm^2
  Growth inhibition rate, Post-emergence treatment, Setaria glauca (L.) Beauv.: 90%
  Growth inhibition rate, Pre-emergence treatment, Setaria glauca (L.) Beauv.: 80%
Zinnia elegans Jacq.; dose 37.5 g a.i./hm^2
  Growth inhibition rate, Post-emergence treatment, Zinnia elegans Jacq.: 100%
  Growth inhibition rate, Pre-emergence treatment, Zinnia elegans Jacq.: 0%
Zinnia elegans Jacq.; dose 150 g a.i./hm^2
  Growth inhibition rate, Post-emergence treatment, Zinnia elegans Jacq.: 100%
  Growth inhibition rate, Pre-emergence treatment, Zinnia elegans Jacq.: 5%
Zinnia elegans Jacq.; dose 600 g a.i./hm^2
  Growth inhibition rate, Post-emergence treatment, Zinnia elegans Jacq.: 100%
  Growth inhibition rate, Pre-emergence treatment, Zinnia elegans Jacq.: 80%
[2]; dose 37.5 g a.i./hm^2
  Growth inhibition rate, Post-emergence treatment, Abutilon theophrasti Medic.: 100%
  Growth inhibition rate, Pre-emergence treatment, Abutilon theophrasti Medic.: 5%
[2]; dose 150 g a.i./hm^2
  Growth inhibition rate, Post-emergence treatment, Abutilon theophrasti Medic.: 100%
  Growth inhibition rate, Pre-emergence treatment, Abutilon theophrasti Medic.: 20%
[2]; dose 600 g a.i./hm^2
  Growth inhibition rate, Post-emergence treatment, Abutilon theophrasti Medic.: 100%
  Growth inhibition rate, Pre-emergence treatment, Abutilon theophrasti Medic.: 45%
[3]; dose 37.5 g a.i./hm^2
  Growth inhibition rate, Post-emergence treatment, Echinochloa crus-galli (L.) Beauv.: 20%
  Growth inhibition rate, Pre-emergence treatment, Echinochloa crus-galli (L.) Beauv.: 0%
[3]; dose 150 g a.i./hm^2
  Growth inhibition rate, Post-emergence treatment, Echinochloa crus-galli (L.) Beauv.: 35%
  Growth inhibition rate, Pre-emergence treatment, Echinochloa crus-galli (L.) Beauv.: 20%
[3]; dose 600 g a.i./hm^2
  Growth inhibition rate, Post-emergence treatment, Echinochloa crus-galli (L.) Beauv.: 45%
  Growth inhibition rate, Pre-emergence treatment, Echinochloa crus-galli (L.) Beauv.: 40%
[4]
  pre-emergence and post-emergence herbicidal activity against broad-leaf weeds and grass weeds: good

## CN(C)S(=O)(=O)OCC1(C)CC(c2cc(-n3c(=O)cc(C(F)(F)F)n(C)c3=O)c(F)cc2Cl)=NO1 (stereo not drawn) [Compound 96]
[4]
  pre-emergence and post-emergence herbicidal activity against broad-leaf weeds and grass weeds: good

## Cn1c(C(F)(F)F)cc(=O)n(-c2ccc(Cl)c(C3=NOC(C)(C(=O)O)C3)c2)c1=O (stereo not drawn) [Compound 282]
[4]
  pre-emergence and post-emergence herbicidal activity against broad-leaf weeds and grass weeds: good

## CC(C)NC(=O)C1(C)CC(c2cc(-n3c(=O)cc(C(F)(F)F)n(C)c3=O)c(F)cc2Cl)=NO1 (stereo not drawn) [Compound 26]
[4]
  pre-emergence and post-emergence herbicidal activity against broad-leaf weeds and grass weeds: good

## CC(C)C(=O)OCC1(C)CC(c2cc(-n3c(=O)cc(C(F)(F)F)n(C)c3=O)ccc2Cl)=NO1 (stereo not drawn) [Compound 324]
[4]
  pre-emergence and post-emergence herbicidal activity against broad-leaf weeds and grass weeds: good

## Cn1c(C(F)(F)F)cc(=O)n(-c2ccc(Cl)c(C3=NOC(C)(CO)C3)c2)c1=O (stereo not drawn) [Compound 320]
[4]
  pre-emergence and post-emergence herbicidal activity against broad-leaf weeds and grass weeds: good

## Cn1c(C(F)(F)F)cc(=O)n(-c2ccc(Cl)c(C3=NOC(C)(COC(=O)CCCl)C3)c2)c1=O (stereo not drawn) [Compound 329]
[4]
  pre-emergence and post-emergence herbicidal activity against broad-leaf weeds and grass weeds: good

## COc1c(Cl)ccc(Cl)c1C(=O)OCC1(C)CC(c2cc(-n3c(=O)cc(C(F)(F)F)n(C)c3=O)c(F)cc2Cl)=NO1 (stereo not drawn) [Compound 66]
[4]
  pre-emergence and post-emergence herbicidal activity against broad-leaf weeds and grass weeds: good

## Cn1c(C(F)(F)F)cc(=O)n(-c2ccc(Cl)c(C3=NOC(C)(COC(=O)C4CC4)C3)c2)c1=O (stereo not drawn) [Compound 323]
[4]
  pre-emergence and post-emergence herbicidal activity against broad-leaf weeds and grass weeds: good

## CNC(=O)C1(C)CC(c2cc(-n3c(=O)cc(C(F)(F)F)n(C)c3=O)c(F)cc2Cl)=NO1 (stereo not drawn) [Compound 23]
[4]
  pre-emergence and post-emergence herbicidal activity against broad-leaf weeds and grass weeds: good

## CSCCC(=O)OCC1(C)CC(c2cc(-n3c(=O)cc(C(F)(F)F)n(C)c3=O)ccc2Cl)=NO1 (stereo not drawn) [Compound 332]
[4]
  pre-emergence and post-emergence herbicidal activity against broad-leaf weeds and grass weeds: good

## CC(=O)OCC1(C)CC(c2cc(-n3c(=O)cc(C(F)(F)F)n(C)c3=O)ccc2Cl)=NO1 (stereo not drawn) [Compound 321]
[4]
  pre-emergence and post-emergence herbicidal activity against broad-leaf weeds and grass weeds: good

## Cn1c(C(F)(F)F)cc(=O)n(-c2ccc(Cl)c(C3=NOC(C)(COC(=O)CCl)C3)c2)c1=O (stereo not drawn) [Compound 328]
[4]
  pre-emergence and post-emergence herbicidal activity against broad-leaf weeds and grass weeds: good
